Our source for the EC50 values is patent publication US10131657B2, “Bromodomain inhibitors” (AbbVie Inc., priority 2013, dated 2018).

The subject of this experiment is breast cancer cell line MX-1. Put plainly: MX-1 cell line proliferation assay, Method A. The class given is cell-based. The conditions noted are these: Homo sapiens, MX1; MX-1 cells, 96-well, 72 hours, Cell Titer Glo; read-out: Cellular proliferation: EC50 Method A. As for the experimental part: The impact of compounds of the Examples on cancer cell proliferation was determined using the breast cancer cell line MX-1 (ATCC) in a 3-day proliferation assay and the data are reported in Table 1.
MX-1 cells were maintained in RPMI 1640 medium (Sigma) supplemented with 10% FBS at 37° C. and an atmosphere of 5% CO2. For compound testing, MX-1 cells were plated in 96-well black bottom plates at a density of 5000 cells/well in 90 μL of culture media and incubated at 370 overnight to allow cell adhesion and spreading. Compound dilution series were prepared in DMSO via a 3-fold serial dilution from 3 mM to 0.1 μM. The DMSO dilution series were then diluted 1:100 in phosphate buffered saline, and 10 μL of the resulted solution were added to the appropriate wells of the MX-1 cell plate. The final compound concentrations in the wells were 3, 1, 0.3, 0.1, 0.03, 0.01, 0.003, 0.001, 0.0003 and 0.0001 μM.
Luminescence readings from the Cell Titer Glo assay were normalized to the DMSO treated cells and analyzed using the GraphPad Prism software with sigmoidal curve fitting to obtain ECs50s. The minimum significant ratio (MSR) was determined to evaluate assay reproducibility (Eastwood et al., (2006) J Biomol Screen, 11: 253-261).
For orientation: Cellular ATP, detected with luciferase, serves as a proxy for viable cell number.

As for `Cc1cc(-c2ccc(-c3cn(C)c(=O)c4[nH]ccc34)c(OCC3CC3)c2)[nH]n1` [Example 1, 4-[2-(cyclopropylmethoxy)-4-(3-methyl-1H-pyrazol-5-yl)phenyl]-6-methyl-1,6-dihydro-7H-pyrrolo[2,3-c]pyridin-7-one], the EC50 came to 0.151 µM.
The result for `CCS(=O)(=O)Nc1cc(-c2cn(C)c(=O)c3[nH]ccc23)c(Oc2ccc(F)cc2F)cc1CN(C)C` [Example 2, N-[4-(2,4-difluorophenoxy)-2-[(dimethylamino)methyl]-5-(6-methy-7-oxo-6,7-dihydro-1H-pyrrolo[2,3-c]pyridin-4-yl)phenyl]ethanesulfonamide] reads 0.11 µM.
`CCS(=O)(=O)Nc1cc(-c2cn(C)c(=O)c3[nH]ccc23)c(Oc2ccc(F)cc2F)cc1CN1CCCCC1` [Example 3, N-[4-(2,4-difluorophenoxy)-5-(6-methyl-7-oxo-6,7-dihydro-1H-pyrrolo[2,3-c]pyridin-4-yl)-2-(piperidin-1-ylmethyl)phenyl]ethanesulfonamide]: the EC50 was 0.0368 µM.
The result for `CCS(=O)(=O)Nc1cc(-c2cn(C)c(=O)c3[nH]ccc23)c(Oc2ccc(F)cc2F)cc1CN1CCOCC1` [Example 4, N-[4-(2,4-difluorophenoxy)-5-(6-methyl-7-oxo-6,7-dihydro-1H-pyrrolo[2,3-c]pyridin-4-yl)-2-(morpholin-4-ylmethyl)phenyl]ethanesulfonamide] reads 0.0163 µM; that for `CCS(=O)(=O)Nc1cc(-c2cn(C)c(=O)c3[nH]ccc23)c(Oc2ccc(F)cc2F)cc1CN1CCN(C)CC1` [Example 5, N-{4-(2,4-difluorophenoxy)-5-(6-methyl-7-oxo-6,7-dihydro-1H-pyrrolo[2,3-c]pyridin-4-yl)-2-[(4-methylpiperazin-1-yl)methyl]phenyl}ethanesulfonamide], 0.0401 µM; that for `CCS(=O)(=O)Nc1cc(-c2cn(C)c(=O)c3[nH]ccc23)c(Oc2ccc(F)cc2F)cc1CO` [Example 6, N-[4-(2,4-difluorophenoxy)-2-(hydroxymethyl)-5-(6-methyl-7-oxo-6,7-dihydro-1H-pyrrolo[2,3-c]pyridin-4-yl)phenyl]ethanesulfonamide], 0.0291 µM.
As for `CCS(=O)(=O)Nc1cc(-c2cn(C)c(=O)c3[nH]ccc23)c(Oc2ccc(F)cc2F)cc1CNC1CCCC1` [Example 7, N-{2-[(cyclopentylamino)methyl]-4-(2,4-difluorophenoxy)-5-(6-methyl-7-oxo-6,7-dihydro-1H-pyrrolo[2,3-c]pyridin-4-yl)phenyl}ethanesulfonamide], the figure is 0.139 µM.
The result for `CCS(=O)(=O)Nc1cc(-c2cn(C)c(=O)c3[nH]ccc23)c(Oc2ccc(F)cc2F)cc1C(N)=O` [Example 8, 5-(2,4-difluorophenoxy)-2-[(ethylsulfonyl)amino]-4-(6-methyl-7-oxo-6,7-dihydro-1H-pyrrolo[2,3-c]pyridin-4-yl)benzamide] reads 0.0449 µM.
`CCS(=O)(=O)Nc1cc(-c2cn(C)c(=O)c3[nH]ccc23)c(Oc2ccc(F)cc2F)cc1C(=O)NC1CCCC1` [Example 9, N-cyclopentyl-5-(2,4-difluorophenoxy)-2-[(ethylsulfonyl)amino]-4-(6-methyl-7-oxo-6,7-dihydro-1H-pyrrolo[2,3-c]pyridin-4-yl)benzamide]: the EC50 stood at 0.0653 µM.
For `CCS(=O)(=O)Nc1cc(-c2cn(C)c(=O)c3[nH]ccc23)c(Oc2ccc(F)cc2F)cc1C(=O)N(C)C` [Example 10, 5-(2,4-difluorophenoxy)-2-[(ethylsulfonyl)amino]-N,N-dimethyl-4-(6-methyl-7-oxo-6,7-dihydro-1H-pyrrolo[2,3-c]pyridin-4-yl)benzamide], the EC50 was found to be 0.0982 µM.
As for `CCS(=O)(=O)Nc1cc(-c2cn(C)c(=O)c3[nH]ccc23)c(Oc2ccc(F)cc2F)cc1C(=O)O` [Example 11, 5-(2,4-difluorophenoxy)-2-[(ethylsulfonyl)amino]-4-(6-methyl-7-oxo-6,7-dihydro-1H-pyrrolo[2,3-c]pyridin-4-yl)benzoic acid], the figure is 0.452 µM; as for `CCS(=O)(=O)Nc1cc(-c2cn(C)c(=O)c3[nH]ccc23)c(Oc2ccc(F)cc2F)cc1C(=O)NC1CCOCC1` [Example 12, 5-(2,4-difluorophenoxy)-2-[(ethylsulfonyl)amino]-4-(6-methyl-7-oxo-6,7-dihydro-1H-pyrrolo[2,3-c]pyridin-4-yl)-N-(tetrahydro-2H-pyran-4-yl)benzamide], 0.0684 µM; as for `CCS(=O)(=O)Nc1cc(-c2cn(C)c(=O)c3[nH]ccc23)c(Oc2ccc(F)cc2F)cc1CNCCO` [Example 13, N-[4-(2,4-difluorophenoxy)-2-{[(2-hydroxyethyl)amino]methyl}-5-(6-methyl-7-oxo-6,7-dihydro-1H-pyrrolo[2,3-c]pyridin-4-yl)phenyl]ethanesulfonamide], 0.307 µM.
As for `CCS(=O)(=O)Nc1cc(-c2cn(C)c(=O)c3[nH]ccc23)c(Oc2ccc(F)cc2F)cc1CN1CCCC1c1ccccc1` (stereo not shown) [Example 14, N-{4-(2,4-difluorophenoxy)-5-(6-methyl-7-oxo-6,7-dihydro-1H-pyrrolo[2,3-c]pyridin-4-yl)-2-[(2-phenylpyrrolidin-1-yl)methyl]phenyl}ethanesulfonamide], the figure is 0.184 µM; as for `CCS(=O)(=O)Nc1cc(-c2cn(C)c(=O)c3[nH]ccc23)c(Oc2ccc(F)cc2F)c(C2CC2)c1` [Example 15, N-[3-cyclopropyl-4-(2,4-difluorophenoxy)-5-(6-methyl-7-oxo-6,7-dihydro-1H-pyrrolo[2,3-c]pyridin-4-yl)phenyl]ethanesulfonamide], 0.105 µM; as for `CCS(=O)(=O)c1ccc(OCC2CC2(F)F)c(-c2cn(C)c(=O)c3[nH]c(CN4CCN(c5ccncc5)CC4)cc23)c1` (stereo not shown) [Example 16, 4-{2-[(2,2-difluorocyclopropyl)methoxy]-5-(ethylsulfonyl)phenyl}-6-methyl-2-{[4-(pyridin-4-yl)piperazin-1-yl]methyl}-1,6-dihydro-7H-pyrrolo[2,3-c]pyridin-7-one], 0.202 µM.
As to `CCS(=O)(=O)c1ccc(OCC2CC2(F)F)c(-c2cn(C)c(=O)c3[nH]c(CN4CCN(c5cccnc5)CC4)cc23)c1` (stereo not shown) [Example 20, 4-{2-[(2,2-difluorocyclopropyl)methoxy]-5-(ethylsulfonyl)phenyl}-6-methyl-2-{[4-(pyridin-3-yl)piperazin-1-yl]methyl}-1,6-dihydro-7H-pyrrolo[2,3-c]pyridin-7-one], the EC50 stood at 0.101 µM.
The result for `Cn1cc(-c2cc(S(C)(=O)=O)ccc2Oc2cccc(C(=O)NC3CC3)c2)c2cc[nH]c2c1=O` [Example 21, N-cyclopropyl-3-[2-(6-methyl-7-oxo-6,7-dihydro-1H-pyrrolo[2,3-c]pyridin-4-yl)-4-(methylsulfonyl)phenoxy]benzamide] reads 0.487 µM.
As for `CN1CCN(C(=O)c2cccc(Oc3ccc(S(C)(=O)=O)cc3-c3cn(C)c(=O)c4[nH]ccc34)c2)CC1` [Example 22, 6-methyl-4-[2-{3-[(4-methylpiperazin-1-yl)carbonyl]phenoxy}-5-(methylsulfonyl)phenyl]-1,6-dihydro-7H-pyrrolo[2,3-c]pyridin-7-one], the figure is above 1 µM.
The result for `Cn1cc(-c2cc(S(C)(=O)=O)ccc2Oc2cccc(C(=O)N3CCN(CCn4ccnc4)CC3)c2)c2cc[nH]c2c1=O` [Example 23, 4-{2-[3-({4-[2-(1H-imidazol-1-yl)ethyl]piperazin-1-yl}carbonyl)phenoxy]-5-(methylsulfonyl)phenyl}-6-methyl-1,6-dihydro-7H-pyrrolo[2,3-c]pyridin-7-one] reads above 1 µM; that for `Cn1cc(-c2cc(S(C)(=O)=O)ccc2Oc2cccc(C(=O)N3CCC(N4CCCC4)CC3)c2)c2cc[nH]c2c1=O` [Example 24, 6-methyl-4-[5-(methylsulfonyl)-2-(3-{[4-(pyrrolidin-1-yl)piperidin-1-yl]carbonyl}phenoxy)phenyl]-1,6-dihydro-7H-pyrrolo[2,3-c]pyridin-7-one], above 1 µM.
As for `Cn1cc(-c2cc(S(C)(=O)=O)ccc2Oc2cccc(C(=O)NC3CCCCC3)c2)c2cc[nH]c2c1=O` [Example 25, N-cyclohexyl-3-[2-(6-methyl-7-oxo-6,7-dihydro-1H-pyrrolo[2,3-c]pyridin-4-yl)-4-(methylsulfonyl)phenoxy]benzamide], the EC50 is 0.134 µM.
As for `Cn1cc(-c2cc(S(C)(=O)=O)ccc2Oc2cccc(C(=O)NCCCN3CCCC3=O)c2)c2cc[nH]c2c1=O` [Example 27, 3-[2-(6-methyl-7-oxo-6,7-dihydro-1H-pyrrolo[2,3-c]pyridin-4-yl)-4-(methylsulfonyl)phenoxy]-N-[3-(2-oxopyrrolidin-1-yl)propyl]benzamide], the figure is 0.442 µM.
Regarding `Cn1cc(-c2cc(S(C)(=O)=O)ccc2Oc2cccc(C(=O)N3CCN(C4CCCC4)CC3)c2)c2cc[nH]c2c1=O` [Example 28, 4-[2-{3-[(4-cyclopentylpiperazin-1-yl)carbonyl]phenoxy}-5-(methylsulfonyl)phenyl]-6-methyl-1,6-dihydro-7H-pyrrolo[2,3-c]pyridin-7-one], the EC50 is 0.195 µM.
As for `CN(C)CCN1CCN(C(=O)c2cccc(Oc3ccc(S(C)(=O)=O)cc3-c3cn(C)c(=O)c4[nH]ccc34)c2)CC1` [Example 29, 4-{2-[3-({4-[2-(dimethylamino)ethyl]piperazin-1-yl}carbonyl)phenoxy]-5-(methylsulfonyl)phenyl}-6-methyl-1,6-dihydro-7H-pyrrolo[2,3-c]pyridin-7-one], the EC50 was above 1 µM.
